# Source: ChEMBL document CHEMBL1201862, “PubChem BioAssay data set” (2004)
# Calls of active or inactive are those of the source.
# Tests used:
# [1] = biological target: T1, SUMO-activating enzyme (Homo sapiens, UniProt Q9UBT2); experiment: blockers of UBC9-mediated SUMO conjugation – biochemical, AlphaScreen, SUMOylation inhibitor project, confirmation (AID 2018); type: functional
# [2] = biological target: T2, Carboxy-terminal domain RNA polymerase II polypeptide A small phosphatase 1 (Homo sapiens, UniProt Q9GZU7); experiment: CTDSP1 inhibitors, concentration-response, biochemical, absorbance readout, ultra-high-throughput screen actives (AID 540297); type: functional
# T2 sequence (Q9GZU7 whole entry): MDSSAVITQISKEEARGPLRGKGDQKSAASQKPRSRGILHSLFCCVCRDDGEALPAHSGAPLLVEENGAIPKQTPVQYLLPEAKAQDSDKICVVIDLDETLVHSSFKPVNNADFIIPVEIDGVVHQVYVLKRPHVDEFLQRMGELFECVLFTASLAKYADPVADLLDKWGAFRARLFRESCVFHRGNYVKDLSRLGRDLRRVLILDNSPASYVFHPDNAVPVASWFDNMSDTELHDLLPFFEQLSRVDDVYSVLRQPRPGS
# [3] = system: Streptococcus sp. 'group A'; experiment: Streptococcus pyogenes SK(-)GAS viability under kanamycin – luminescence, BacTiterGlo, confirmation, counter-screen for streptokinase expression inhibitor project, dose response (AID 1900); type: functional, organism-based
# [4] = biological target: T3, Streptokinase A (Streptococcus pyogenes serotype M1, UniProt P10520); experiment: viability-normalized secreted streptokinase activity reduction – plasminogen activation absorbance, OD405, dose response (AID 1914); type: functional, Streptococcus pyogenes M1 GAS;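 further: secreted streptokinase activity via plasminogen activation per viability signal from cell pellet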
# T3 sequence (P10520 whole entry): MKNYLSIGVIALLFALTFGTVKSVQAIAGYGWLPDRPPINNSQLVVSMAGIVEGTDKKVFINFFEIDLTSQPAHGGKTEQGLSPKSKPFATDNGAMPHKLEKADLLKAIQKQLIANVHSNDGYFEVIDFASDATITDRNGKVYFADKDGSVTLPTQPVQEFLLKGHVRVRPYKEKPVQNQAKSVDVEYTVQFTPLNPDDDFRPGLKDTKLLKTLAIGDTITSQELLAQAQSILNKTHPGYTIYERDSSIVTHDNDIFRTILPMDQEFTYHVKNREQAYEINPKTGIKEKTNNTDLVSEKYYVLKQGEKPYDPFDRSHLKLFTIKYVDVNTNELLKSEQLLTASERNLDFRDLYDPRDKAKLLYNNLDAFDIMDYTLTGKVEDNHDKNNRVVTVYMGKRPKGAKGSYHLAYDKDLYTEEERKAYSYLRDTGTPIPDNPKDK
# [5] = system: Streptococcus; experiment: GAS UMAA2166 growth inhibition – luminescence, BacTiterGlo, counter-screen for streptokinase expression inhibitor project, dose response (AID 1915); type: functional, organism-based;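 further: potency for reduction of bacterial viability or growth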
# [6] = system: BJ; experiment: BJ-TERT fibroblast viability loss – cell-based, RAS-independent, luminescence, dose response (AID 1933); type: functional; conditions: Homo sapiens
# [7] = system: BJ; experiment: BJ-TERT-LT-ST fibroblast viability loss – cell-based, RAS-independent, luminescence, dose response (AID 1935); type: functional; conditions: Homo sapiens;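 further: BJ fibroblasts immortalized with TERT plus LT and ST oncogenes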
# [8] = DRD fibroblast viability loss – cell-based, non-viral oncogenic, luminescence, dose response (AID 1934); type: functional; conditions: Homo sapiens
# [9] = system: BJ; experiment: cells; type: functional, cell-based; conditions: Homo sapiens
# [10] = system: SN12K1; experiment: cells; type: functional; conditions: Homo sapiens
# [11] = system: INS1; experiment: INS-1E survival protection against cytokine death – cell-based, luminescence, retest, dose response (AID 449756); type: functional; conditions: Rattus norvegicus;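 further: cell death triggered by IL-1 beta plus TNF-alpha plus IFN-gamma mixture; protective hits raise ATP signal compared with cytokine alone wells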
# [12] = microbe, parasite or virus in culture; type: functional; conditions: Mycobacterium tuberculosis
# [13] = biological target: T4, Ubiquitin-conjugating enzyme E2 N (Homo sapiens, UniProt P61088); type: functional;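 further: Dose-response confirmation in a TR-FRET assay detecting UBC13-driven polyubiquitin chain formation, inhibition measured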
# T4 sequence (P61088 whole entry): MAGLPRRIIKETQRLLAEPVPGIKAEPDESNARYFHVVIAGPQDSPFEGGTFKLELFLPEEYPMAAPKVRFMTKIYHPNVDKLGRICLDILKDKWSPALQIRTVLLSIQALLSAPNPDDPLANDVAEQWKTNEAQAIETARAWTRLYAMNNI
# [14] = biological target: T5, Calpain-2 catalytic subunit (Sus scrofa, UniProt P43367); experiment: m-calpain protease blockers, concentration series – biochemical, fluorogenic peptide substrate, dose response (AID 1420); type: functional
# T5 sequence (P43367 whole entry): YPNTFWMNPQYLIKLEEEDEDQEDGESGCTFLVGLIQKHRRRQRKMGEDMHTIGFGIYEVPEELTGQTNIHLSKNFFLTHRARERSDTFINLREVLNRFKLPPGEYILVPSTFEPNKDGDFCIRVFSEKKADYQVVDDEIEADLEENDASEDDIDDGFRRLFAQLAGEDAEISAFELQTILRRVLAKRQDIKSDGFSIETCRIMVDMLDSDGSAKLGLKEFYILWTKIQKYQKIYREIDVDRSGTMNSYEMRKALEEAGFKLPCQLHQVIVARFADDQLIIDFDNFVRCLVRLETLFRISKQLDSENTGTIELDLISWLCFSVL
# [15] = biological target: Voltage-dependent T-type calcium channel subunit alpha-1H (Homo sapiens, UniProt O95180); type: functional;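 further: channel activity triggered by adding a high calcium stimulation buffer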
# [16] = biological target: T1, SUMO-activating enzyme; experiment: blockers of SAE1/SAE2–UBC9 SUMO transfer – biochemical, HTRF, uHTS, primary screen (AID 2006); type: protein-complex assay
# [17] = system: HEK293; experiment: EBV LMP1 TES2 canonical NF-kB signalling blockers – cell-based, HEK293, luciferase, cherry-pick, dose response (AID 588343); type: functional; conditions: Homo sapiens
# [18] = biological target: T6, Heat shock factor protein 1 (Mus musculus, UniProt P38532); experiment: decrease of HSF1-responsive luciferase luminescence – cell-based, NIH3T3, dose retest, confirmation (AID 2382); type: functional;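 further: NIH3T3 fibroblasts with HSF1-driven luciferase reporter stressed by proteasome inhibitor MG132; luminescence from HSF1-driven luciferase expression after 8 hours of MG132 stress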
# T6 sequence (P38532 whole entry): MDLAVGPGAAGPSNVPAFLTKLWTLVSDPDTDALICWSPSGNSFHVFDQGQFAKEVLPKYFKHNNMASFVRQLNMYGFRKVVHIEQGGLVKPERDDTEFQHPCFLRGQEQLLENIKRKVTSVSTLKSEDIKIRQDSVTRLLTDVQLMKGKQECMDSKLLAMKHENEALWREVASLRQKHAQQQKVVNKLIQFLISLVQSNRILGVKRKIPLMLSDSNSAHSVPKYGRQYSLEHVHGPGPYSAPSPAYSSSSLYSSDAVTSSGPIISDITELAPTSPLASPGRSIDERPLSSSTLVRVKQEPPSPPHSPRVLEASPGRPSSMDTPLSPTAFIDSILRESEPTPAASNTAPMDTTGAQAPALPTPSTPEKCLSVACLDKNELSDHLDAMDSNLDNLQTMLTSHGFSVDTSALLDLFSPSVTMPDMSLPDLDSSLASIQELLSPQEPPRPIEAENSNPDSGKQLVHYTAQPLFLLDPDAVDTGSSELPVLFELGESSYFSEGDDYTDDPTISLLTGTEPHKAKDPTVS
# [19] = blockers of HIV-1 envelope-mediated cell-cell fusion – cherry-pick, dose response (AID 652057); type: functional, cell-based
# [20] = blockers of HIV-1 ZM109 envelope-driven cell-cell fusion – HeLa effector, CEM target cells, luciferase, cherry-pick, dose response (AID 652058); type: functional, cell-based;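 further: luciferase signal from HIV-1 Env mediated cell-cell fusion of effector and target cells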
# [21] = biological target: T7, Replicative DNA helicase DnaB (Mycobacterium tuberculosis, UniProt P9WMR3); experiment: DnaB intein splicing inhibitors, dose response, biochemical, cell-free fluorescence (AID 449749); type: functional
# T7 sequence (P9WMR3 whole entry): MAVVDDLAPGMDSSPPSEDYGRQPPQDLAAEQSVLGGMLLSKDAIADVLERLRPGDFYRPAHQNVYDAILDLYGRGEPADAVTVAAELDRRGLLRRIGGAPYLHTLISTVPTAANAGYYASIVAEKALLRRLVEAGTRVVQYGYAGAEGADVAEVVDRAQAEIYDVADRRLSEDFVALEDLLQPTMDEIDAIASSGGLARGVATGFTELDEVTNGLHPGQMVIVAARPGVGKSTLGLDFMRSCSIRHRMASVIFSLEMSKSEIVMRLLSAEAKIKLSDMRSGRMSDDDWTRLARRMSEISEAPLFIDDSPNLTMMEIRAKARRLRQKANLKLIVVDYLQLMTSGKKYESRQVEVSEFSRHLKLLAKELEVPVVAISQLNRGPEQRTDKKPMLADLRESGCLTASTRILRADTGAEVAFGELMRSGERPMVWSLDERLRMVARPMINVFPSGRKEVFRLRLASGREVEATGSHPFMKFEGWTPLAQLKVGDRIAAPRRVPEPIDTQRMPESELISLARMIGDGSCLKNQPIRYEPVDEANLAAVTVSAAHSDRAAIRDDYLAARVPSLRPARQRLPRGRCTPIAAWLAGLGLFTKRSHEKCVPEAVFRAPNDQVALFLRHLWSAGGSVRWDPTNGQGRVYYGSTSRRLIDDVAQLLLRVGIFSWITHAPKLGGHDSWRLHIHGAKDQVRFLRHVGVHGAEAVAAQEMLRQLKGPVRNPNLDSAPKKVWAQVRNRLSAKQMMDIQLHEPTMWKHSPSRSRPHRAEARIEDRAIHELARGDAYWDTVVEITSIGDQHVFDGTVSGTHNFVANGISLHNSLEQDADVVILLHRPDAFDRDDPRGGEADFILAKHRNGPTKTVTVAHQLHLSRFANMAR
# [22] = biological target: T8, Protein RecA (Mycobacterium tuberculosis, UniProt P9WHJ3); experiment: Fluorescence Cell-Free Homogeneous Dose Retest to Identify Inhibitors of RecA-Intein Splicing Activity. [Related pubchem assays (depositor defined):AID2097, AID2223, AID489010, AID492950]; type: functional
# T8 sequence (P9WHJ3 whole entry): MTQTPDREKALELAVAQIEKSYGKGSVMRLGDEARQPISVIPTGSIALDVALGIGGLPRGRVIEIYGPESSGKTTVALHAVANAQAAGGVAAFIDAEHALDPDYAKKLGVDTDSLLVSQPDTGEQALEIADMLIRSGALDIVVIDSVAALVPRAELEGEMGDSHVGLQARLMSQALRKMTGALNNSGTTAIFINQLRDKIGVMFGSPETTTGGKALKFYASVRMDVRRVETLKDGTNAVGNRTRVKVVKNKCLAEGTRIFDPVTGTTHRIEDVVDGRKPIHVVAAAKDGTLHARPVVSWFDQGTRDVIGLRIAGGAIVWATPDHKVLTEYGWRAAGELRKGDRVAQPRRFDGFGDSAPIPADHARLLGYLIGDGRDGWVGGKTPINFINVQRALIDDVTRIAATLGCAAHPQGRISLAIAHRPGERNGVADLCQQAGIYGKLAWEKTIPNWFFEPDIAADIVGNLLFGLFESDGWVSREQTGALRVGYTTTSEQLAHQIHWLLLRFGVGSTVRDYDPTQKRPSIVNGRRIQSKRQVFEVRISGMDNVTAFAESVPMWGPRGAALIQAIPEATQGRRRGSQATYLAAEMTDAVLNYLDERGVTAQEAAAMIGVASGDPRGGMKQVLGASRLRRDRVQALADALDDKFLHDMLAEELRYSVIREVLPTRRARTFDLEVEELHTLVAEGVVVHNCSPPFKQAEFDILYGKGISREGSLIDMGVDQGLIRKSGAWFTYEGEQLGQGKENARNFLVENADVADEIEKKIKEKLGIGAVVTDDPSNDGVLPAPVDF
# T1 sequence (Q9UBE0 whole entry, the tested form may be a part): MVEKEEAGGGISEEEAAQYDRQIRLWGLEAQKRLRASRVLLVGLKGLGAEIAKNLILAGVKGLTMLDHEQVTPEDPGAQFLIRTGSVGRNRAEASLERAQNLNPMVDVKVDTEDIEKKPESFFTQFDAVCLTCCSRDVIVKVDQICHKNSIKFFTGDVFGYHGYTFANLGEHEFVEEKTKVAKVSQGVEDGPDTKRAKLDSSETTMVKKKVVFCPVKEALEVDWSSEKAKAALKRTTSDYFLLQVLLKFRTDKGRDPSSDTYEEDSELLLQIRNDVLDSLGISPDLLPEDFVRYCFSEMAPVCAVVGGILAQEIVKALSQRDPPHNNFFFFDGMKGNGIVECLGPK
# T1 sequence (Q9UBT2 whole entry, the tested form may be a part): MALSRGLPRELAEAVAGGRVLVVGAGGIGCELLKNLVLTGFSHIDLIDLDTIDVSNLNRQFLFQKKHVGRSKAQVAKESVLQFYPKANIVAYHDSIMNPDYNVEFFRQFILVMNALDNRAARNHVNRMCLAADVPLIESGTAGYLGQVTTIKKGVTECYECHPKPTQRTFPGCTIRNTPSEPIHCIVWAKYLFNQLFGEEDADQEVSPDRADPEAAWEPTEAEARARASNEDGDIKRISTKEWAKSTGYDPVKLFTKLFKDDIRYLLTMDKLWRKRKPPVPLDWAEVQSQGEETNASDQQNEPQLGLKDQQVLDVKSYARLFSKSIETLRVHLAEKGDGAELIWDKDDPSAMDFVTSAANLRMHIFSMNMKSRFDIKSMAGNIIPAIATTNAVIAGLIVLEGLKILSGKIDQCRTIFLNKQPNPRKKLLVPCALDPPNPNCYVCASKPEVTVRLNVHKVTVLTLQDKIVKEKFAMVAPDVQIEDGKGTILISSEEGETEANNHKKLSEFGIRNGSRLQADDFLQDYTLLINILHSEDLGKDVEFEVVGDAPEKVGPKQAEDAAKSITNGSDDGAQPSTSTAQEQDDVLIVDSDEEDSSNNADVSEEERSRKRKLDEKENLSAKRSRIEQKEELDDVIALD
# Chain of Voltage-dependent T-type calcium channel subunit alpha-1H (O95180 whole entry): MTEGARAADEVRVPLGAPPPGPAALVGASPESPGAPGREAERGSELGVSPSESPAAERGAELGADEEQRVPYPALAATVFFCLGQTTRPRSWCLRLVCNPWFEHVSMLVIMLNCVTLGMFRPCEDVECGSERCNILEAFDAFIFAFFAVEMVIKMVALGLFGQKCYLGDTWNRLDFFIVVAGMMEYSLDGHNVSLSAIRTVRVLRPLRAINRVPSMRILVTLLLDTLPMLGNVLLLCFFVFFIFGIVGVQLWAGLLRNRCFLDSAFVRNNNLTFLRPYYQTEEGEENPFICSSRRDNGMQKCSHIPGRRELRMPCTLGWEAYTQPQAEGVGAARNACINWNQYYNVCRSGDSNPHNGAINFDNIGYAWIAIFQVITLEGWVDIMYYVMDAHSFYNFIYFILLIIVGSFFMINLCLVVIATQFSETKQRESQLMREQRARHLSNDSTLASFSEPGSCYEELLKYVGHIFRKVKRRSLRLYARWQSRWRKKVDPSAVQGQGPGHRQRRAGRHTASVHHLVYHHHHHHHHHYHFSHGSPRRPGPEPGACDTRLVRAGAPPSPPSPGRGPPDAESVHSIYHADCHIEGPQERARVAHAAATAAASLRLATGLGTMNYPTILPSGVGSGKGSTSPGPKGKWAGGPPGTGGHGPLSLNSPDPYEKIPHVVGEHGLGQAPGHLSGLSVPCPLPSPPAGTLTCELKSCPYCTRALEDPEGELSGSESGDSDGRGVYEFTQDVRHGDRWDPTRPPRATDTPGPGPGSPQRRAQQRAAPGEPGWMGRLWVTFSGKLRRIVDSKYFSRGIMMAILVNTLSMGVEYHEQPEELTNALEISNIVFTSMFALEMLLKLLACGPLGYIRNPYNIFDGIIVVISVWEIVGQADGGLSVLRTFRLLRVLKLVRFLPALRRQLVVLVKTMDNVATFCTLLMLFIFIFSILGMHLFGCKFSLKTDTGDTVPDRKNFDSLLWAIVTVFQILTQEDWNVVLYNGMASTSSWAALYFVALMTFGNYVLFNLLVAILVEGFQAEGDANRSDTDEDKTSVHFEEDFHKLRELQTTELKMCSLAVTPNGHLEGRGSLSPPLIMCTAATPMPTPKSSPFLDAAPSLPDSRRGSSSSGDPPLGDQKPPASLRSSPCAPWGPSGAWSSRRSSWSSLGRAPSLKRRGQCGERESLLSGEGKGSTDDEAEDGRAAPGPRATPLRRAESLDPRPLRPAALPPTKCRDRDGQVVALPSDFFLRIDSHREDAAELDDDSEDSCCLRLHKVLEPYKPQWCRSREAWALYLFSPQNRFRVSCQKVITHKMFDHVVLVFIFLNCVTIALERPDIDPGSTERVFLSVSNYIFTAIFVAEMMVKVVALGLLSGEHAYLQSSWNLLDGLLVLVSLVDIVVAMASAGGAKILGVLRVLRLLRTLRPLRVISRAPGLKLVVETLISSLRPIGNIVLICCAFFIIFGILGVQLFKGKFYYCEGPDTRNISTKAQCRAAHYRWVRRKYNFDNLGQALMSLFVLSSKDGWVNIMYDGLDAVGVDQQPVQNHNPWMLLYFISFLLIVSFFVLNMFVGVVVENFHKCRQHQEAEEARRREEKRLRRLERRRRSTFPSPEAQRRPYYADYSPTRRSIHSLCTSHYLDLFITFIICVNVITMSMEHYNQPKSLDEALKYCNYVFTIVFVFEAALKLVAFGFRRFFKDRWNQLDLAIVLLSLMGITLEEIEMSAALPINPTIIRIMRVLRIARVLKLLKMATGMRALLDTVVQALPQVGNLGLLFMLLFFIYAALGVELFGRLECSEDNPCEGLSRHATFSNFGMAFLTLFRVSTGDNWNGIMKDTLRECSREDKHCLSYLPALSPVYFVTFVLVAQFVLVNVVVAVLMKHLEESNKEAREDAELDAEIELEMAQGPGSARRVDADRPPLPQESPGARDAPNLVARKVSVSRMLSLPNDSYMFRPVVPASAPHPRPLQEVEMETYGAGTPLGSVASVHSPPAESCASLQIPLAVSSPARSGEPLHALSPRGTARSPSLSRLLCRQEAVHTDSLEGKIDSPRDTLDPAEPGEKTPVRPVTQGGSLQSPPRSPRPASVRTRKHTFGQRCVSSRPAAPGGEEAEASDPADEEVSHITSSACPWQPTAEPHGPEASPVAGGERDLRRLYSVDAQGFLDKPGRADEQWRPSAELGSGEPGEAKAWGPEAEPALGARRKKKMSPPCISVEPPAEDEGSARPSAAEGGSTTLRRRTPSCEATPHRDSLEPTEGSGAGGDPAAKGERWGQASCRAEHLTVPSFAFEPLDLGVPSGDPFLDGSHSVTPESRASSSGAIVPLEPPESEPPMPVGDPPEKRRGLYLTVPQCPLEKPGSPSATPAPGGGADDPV
smiles,measurement,setting,value
CCOc1cc(/C=N/N=C(\N)c2nonc2N)cc(Br)c1OCc1cccc2ccccc12,IC50,[1],80 µM (active)
COc1cc2ccccc2cc1C(=O)NC(=S)Nc1ccc(C(=O)O)cc1,IC50,[2],4.12 µM (active)
same,EC50,[3],8.15 µM (active)
same,EC50,[4],> 150 µM (not active)
same,EC50,[5],60.9 µM (active)
COc1ccccc1N1CCN(C(=O)CCC(=O)Nc2nnc(CC(C)C)s2)CC1,EC50,[6],> 150 µM (not active)
same,EC50,[7],> 150 µM (not active)
same,EC50,[8],> 150 µM (inconclusive)
same,EC50,[9],> 150 µM (not active)
Cc1cccc(NS(=O)(=O)c2ccc(NC(=O)CN(c3cc([N+](=O)[O-])ccc3C)S(C)(=O)=O)cc2)c1,EC50,[6],22.7 µM (active)
same,EC50,[7],7.77 µM (inconclusive)
same,EC50,[8],> 150 µM (not active)
same,EC50,[9],7.28 µM (active)
Cc1cccc(C)c1OCC(=O)N=Nc1c(O)[nH]c2ccc(Br)cc12,IC50,[1],10.6 µM (active)
C/C=C/C1=C(Cl)C(=O)[C@@H](Cl)[C@@]1(O)C(=O)OC [(+)-CRYPTOSPORIPSIN],GI50,[10],1.89 µM (inactive)
CC(C)NC(=S)N/N=C/c1cc(Br)ccc1O,AC50,[11],1.65 µM (active)
same,CC50,[12],38.5 µM (active)
CC[C@@H](C)[C@H](CN[C@H](CNC)C(C)C)NC[C@@H](C)c1ccc(CC(C)C)cc1,IC50,[13],> 20 µM (inactive)
same,CC50,[12],10 µM (active)
CC(=O)c1sc(NC(=O)COc2ccc(C(C)C)c(C)c2)nc1C,IC50,[14],9.95 µM (not active)
CCc1ccc(S(=O)(=O)NCc2csc(-c3ccccc3)n2)s1,EC50,[15],4.61 µM (active)
Cc1cccc(-c2nnc(S)n2/N=C/C=C/c2ccco2)c1,IC50,[16],> 100 µM (inactive)
CCOc1ccc(C(=O)Nc2c3c(nn2C(C)(C)C)CSC3)cc1OCC,EC50,[15],3.79 µM (active)
O=Cc1ccc(-c2cccs2)s1,AC50,[17],6.76 µM (active)
CC(C)[C@H](NC(=O)Cc1ccccc1)C(=O)OCc1cc(=O)n2c(n1)sc1ccccc12,IC50,[2],3.58 µM (active)
same,EC50,[18],21.5 µM (active)
CC(=O)N1c2ccccc2N(Cc2ccc(C)cc2C)C(=O)C1(C)C,EC50,[15],4.43 µM (active)
CN(C)c1cccc(/N=C2/C=C(N3CCOCC3)CC(C)(C)C2)c1,IC50,[2],5.65 µM (active)
COc1cccc(-c2nnc(SCC(=O)NCc3ccc4c(c3)OCO4)n2Cc2ccco2)c1,EC50,[15],8.92 µM (active)
O=C(N/N=C/c1ccc(Cl)cc1)c1nc(O)c2cc([N+](=O)[O-])ccc2n1,IC50,[1],21.5 µM (active)
same,IC50,[16],22 µM (active)
Cc1ccsc1S(=O)(=O)N1CCCC(CCC(=O)NCc2ccccc2F)C1 (stereo not drawn),IC50,[14],> 50 µM (not active)
Cc1ccc(S(=O)(=O)N(C)C[C@H]2Oc3cc(-c4cccc(F)c4)ccc3S(=O)(=O)N([C@H](C)CO)C[C@H]2C)cc1,AC50,[19],1.47 µM (active)
same,AC50,[20],< 0.26 µM (active)
Cn1c2ccccc2c2cc(C(=O)NNC(=O)CCl)sc21,AC50,[21],> 380 µM (inactive)
same,EC50,[22],15.7 µM (active)
same,CC50,[12],21.3 µM (active)
O=C(O)CNC(=O)CC1SC(NNC2=NC(=O)CS2)=NC1=O (stereo not drawn),IC50,[2],5.27 µM (active)
